Experimental data: US5990083A, “Multicatalytic protease inhibitors” (Cephalon, Inc., priority 1997, dated 1999)

Columns and labels:
[1] = molecular target: T1, human MCP (Homo sapiens, UniProt P28074+Q99436); experiment: Determination of IC50 values for MCP inhibitors (chymotrypsin-like or trypsin-like activity of MCP); format: biochemical; details: Table 5, first series; enzyme incubated with inhibitor 15 minutes at 37° C. prior to substrate
T1 construct: Samples of human liver and brain obtained post-mortem were used for isolation and partial purification of MCP; from tissue; host or cells: human liver and brain, post-mortem
Protocol: Samples of human liver and brain obtained post-mortem were used for isolation and partial purification of MCP by ion-exchange chromatography, ammonium sulfate precipitation, and gel filtration (e.g., Driscoll and Goldberg, Proc. Natl. Acad. Sci. 86, 787-791 (1989); Yamamoto et al., Biochim, Biophys. Acta 882, 297-304 (1986). For either starting material, tissue was homogenized in 10 volumes of 20 mM Tris-HCl (pH 7.5) containing 20% glycerol. Following centrifugation at 40,000×g for 30 minutes, proteolytic activity of the chymotrypsin-like component of MCP could be detected in the supernatant (see below). The supernatant was fractionated on a DEAE-Sepharose Fast Flow column equilibrated in homogenization buffer. For each liter of supernatant, 250 ml of resin was used. Following sample loading, the column was washed with ^~ 10 volumes homogenization buffer, and proteins were eluted with a linear NaCl gradient of from 0 to 400 mM (21 for 250 ml resin). Fractions were assayed for MCP activity, and the active fractions were pooled and subjected to precipitation with (NH4)2 SO4 at 80% saturation. Precipitated proteins were collected by centrifugation, resuspended in homogenization buffer, and loaded on a Sephacryl S300HR column (500 ml resin volume) that had been standardized using bovine serum albumin (68 kDa). A single peak of MCP activity was eluted with a molecular weight of ^~ 650 kDa. This preparation was free of other measurable proteolytic activities and maintained its MCP activity upon storage at 4° C. for >6 months. This preparation was used for most of the experiments. Further fractionation of the preparation on an hydroxyapatite-Ultrogel column (Yamamoto et al., supra) yielded a more highly purified enzyme, which according to denaturing SDS-polyacrylamide gel electrophoresis was comprised of the expected >10 subunits ranging in Mr from 20 to 35 kDa.
The procedure for MPC isolation described above generated an enzyme complex whose proteolytic activities were latent, but which could be activated by addition of low concentrations (0.02-0.05%) of SDS (Yamamoto et al., supra). The chymotrypsin-like activity was assayed according to the following procedure: in 96 well microtiter plates, human MCP was diluted 4 to 10-fold in homogenization buffer containing 0.04% SDS. A calorimetric substrate MeOSuc-EVKM-para-nitroanilide (methoxysuccinyl-Glu-Val-Lys-Met-pNa), purchased from Bachem Bioscience Inc., King of Prussia, Pennsylvania was added to a final concentration of 100 μM from a stock solution of 10 mM in dimethylsulfoxide. Reaction volumes were 200 μl per well. After incubation for various periods of time at 37° C., the concentration of free pNa was determined on a Biotech EL-340 microplate reader, reading absorption at 490 nm. Protease activity was determined under conditions in which substrate hydrolysis increased linearly with time and the change in absorption was proportional to the concentration of free pNa. Alternatively, a fluorogenic substrate was used, methoxysuccinyl-Phe-Leu-Phe-amidomethylcoumarin (Enzyme Systems Products, Dublin, Calif.), and the change in fluorescence monitored at an excitation of 390 nm, and an emission at 460 nm.
The trypsin-like activity of human MCP was assayed as described above with the following modifications. Reactions were carried out in Tris-glycerol buffer (pH 9.5) supplemented with 1 mM 2-mercaptoethanol, and the substrate was a fluorogenic substrate, Benzyloxycarbonyl--Phe--Arg--AMC (100 μM).
After incubation for various periods of time at 37° C., the concentration of free AMC was determined on a Fluoroskan II spectrofluorimeter with an excitation filter of 390 nm and an emission filter of 460 nm. Protease activity was determined under conditions in which substrate hydrolysis increased linearly with time and the change in fluorescence was proportional to the concentration of free AMC. […]

[2] = system: unweighting atrophy of the soleus muscle; experiment: Inhibition of unweighting atrophy of the soleus muscle in juvenile rats (muscle protein content); format: in vivo, rat; details: for Protein, End (day 3 of unweighting) / Effect (%), change in protein content during day 3 of unweighting: Table 2; for Protein, End (day 3 of unweighting): 24 hours after in situ soleus injection at day 2 of unweighting, mersalyl 200 nM aqueous; for Protein, End (day 3 of unweighting) / Protein, Treatment (unweighted muscle): MCP inhibitor 1 mM in DMSO; for Effect (%), change in protein content during day 3 of unweighting: End versus Start (estimated day 2 content); for Effect (%) on unweighted muscle protein / Protein, Treatment (unweighted muscle): Table 3; for Effect (%) on unweighted muscle protein: Treatment versus Vehicle contralateral muscle; for Protein, Treatment (unweighted muscle): treated soleus, contralateral muscle received vehicle, mersalyl 200 nM
Protocol: The effect of several inhibitors on the unweighting atrophy of the soleus muscle in juvenile rats was determined. See Tischler, M. E. (1990) Metabolism 39/7: 756-763 (hereinafter "Tischler--1990") for a general discussion of the procedure.
(§1) Juvenile female Sprague-Dawley rates (80-90 g) were tail-cast, hind limb suspended as in Jetspers, S. R. and Tischler, M. E., (1984) J. Appl. Physiol. 57: 1472-1479. The animal's hind limbs were elevated above the floor of the cage with each animal housed individually. Animals had free access to food and water, and were weighed at the time of suspension and at time of termination. During the suspension period the animals were checked daily to ensure that their toes were not touching the floor of the cage, and that there was no swelling of the tail due to the cast.
Each experiment began with the suspension of 20 rats which were randomly divided into 4 groups of 5 animals each. Group A was suspended for just 2 days and provided baseline data to approximate the soleus muscle size in other animals suspended for longer times. Average body weights for the groups at the outset of the study were compared and used as a correction factor for body size differences. […] See Tischler--1990. At 2 days after unweighting commenced, an aqueous solution of mersalyl (200 nM; 4 μl/100 g initial body wt) was injected into one soleus, as described previously. The contralateral muscle was injected with a similar volume of 0.9% saline ("Vehicle"). The animals were maintained under Innovar-vet (10 μl/100 g body wt) tranquilization during the in situ injection procedure. After the injections, the animals were suspended for an additional 24 hours and the soleus was removed. Groups C and D for each experiment were used for testing each of two different embodiments of the disclosed compounds.
(§2) Animals were treated as in group B, except that 1 mM MCP inhibitor, contained in dimethysulfoxide (DMSO), was injected into the soleus of one leg and DMSO only into the contralateral soleus. Thus each experiment consisted of two control groups and the testing of MCP inhibitors of the invention. The completion of five such experiments with different pairs of inhibitors provided for an "n" value of 10 for testing each MCP inhibitor and with each tested in two different shipments of animals.
(§3) After the animal was sacrificed, the soleus was excised, trimmed of fat and connective tissue, and carefully weighed. The muscle was then homogenized in 10% trichloroacetic acid (TCA) and the precipitated protein pelleted by centrifugation. The pellet was then washed once with 10% TCA and once with ethanol:ether (1:1). The final pellet was solubilized in 4 ml of 1N sodium hydroxide. The sample was then analyzed for protein content by the biuret procedure, using albumin as a standard.
(§4) The effect of MCP inhibitors on total muscle protein content was examined primarily by paired comparison with the untreated contralateral muscle. The ratio of contents was calculated and then analyzed statistically by analysis of variance ("ANOVA"). The left leg was always the treated leg so that the protein content ratios could be compared to the non-treated control animals as well. In this way, a significant difference can be shown by comparing the protein content of the two legs, as well as the relative effectiveness of the tested MCP inhibitors. A paired student test was also performed for the effect of each separate treatment. The non-treated control data also provided an estimate of protein content of day 2. This allowed approximation of the protein changes over the 24 hours of treatment for each of the Groups B, C, and D.

[3] = system: Ile113→Thr mutant SOD-1 in human 293 cells; experiment: SOD-1 levels in transiently transfected 293 cells (immunoblot); details: 5 μM, 24 hours, FIG. 5
Protocol: The human kidney cell line designated 293 (human 293 cells or 293 cells)was obtained from the American Type Culture Collection (ATCC), 12301 Parklawn Drive, Rockville, Md., 20852 (ATCC #CRL 1573) and grown in Dulbecco's modified Eagle's medium with 4.6 g/L glucose, 10% heat-inactivated horse serum (Gibco/Life Technologies Inc. Gaithersburg, Md.). The human 293 cells were maintained at 37° C. in an atmosphere of 5% CO2. The 293 cells were transiently transfected using the calcium phosphate method (Chen, C. et al., Biotechniques 6: 632 (1988). The pCMV-113 SOD-1 expression vector was introduced into 293 cells and 24 hours later, the cells were incubated with either compound 34, compound 14, or compound 24, all at a concentration of 5 μM, for a duration of 24 hours. The known MCP and other protease inhibitory compounds were solubilized in dimethyl sulfoxide (DMSO). Other 293 cell cultures were incubated with an equal volume of DMSO or left in medium only as negative controls.
Approximately 48 hours prior to receiving test compounds, 5×10^5 293 cells were seeded in 36 mm dishes and maintained at 37° C. in an atmosphere of 5% CO2. Cells were incubated with MCP inhibitors (compound 34, 14 or 24) or with DMSO as a negative control for a duration of 24 hours. Cell lysates were prepared by lysing the cells in approximately 75 μl of phosphate-buffered saline (PBS) by freeze/thaw cycling. Protein concentrations of the cell lysates were determined using the BCA method (Pierce, Rockford, Ill.) and 2 to 2.5 μg of each sample was electrophoresed on a 4-20% polyacrylamide geol (Novex, San Diego, Calif.) using a Tris/glycine/SDS (25 mM Tris/192 mM glycine/0.1% SDS) buffer system. […] Stained bands corresponding to SOD-1 protein were quantitated using a DocuGel V image analysis system and RFLPscan software (Scanalytics, Billerica, Mass.). Levels of SOD-1 are expressed as units of induction relative to the negative control (i.e., units of experimental divided by units of control).

[4] = system: control soleus muscle; experiment: Effect of MCP inhibitors on control muscle protein content; format: in vivo, rat; details: Table 1; treated soleus versus vehicle-injected contralateral muscle
Source text: as §1, §2, §3
as §4, with “A paired student test was also performed for the effect of each separate treatment. The non-treated control data also provided an estimate of protein content of day 2. This allowed approximation of the protein changes over the 24 hours of treatment for each of the Groups B, C, and D.” left out

SMILES | IC50 [1] | Protein, End (day 3 of unweighting) [2] | Effect (%), change in protein content during day 3 of unweighting [2] | Effect (%) on unweighted muscle protein [2] | Protein, Treatment (unweighted muscle) [2] | SOD-1 levels compared to controls [3] | Protein, Treatment (control muscle) [4]
CC(C)C[C@@H](C=NNC(N)=O)NC(=O)[C@H](CCCNC(=N)N[N+](=O)[O-])NC(=O)C(CCCCCCCCC#N)C1CCCC1 (stereo partly drawn) [Compound 16, 10-cyano-2-cyclopentyl-decanoyl-N g-nitro-L-arginyl-L-leucinal semicarbazone] | 100 nM | 6.0 mg/muscle | -5% | 0% | 6.0 mg/muscle |  | 
CC(C)C[C@@H](C=O)NC(=O)[C@H](CCCNC(=N)N[N+](=O)[O-])NC(=O)C(CCCCCCCCN1C(=O)c2ccccc2C1=O)C1CCCC1 (stereo partly drawn) [Compound 24, 2-cyclopentyl-10-N-phthalimido-decanoyl-N^g-nitro-L-arginyl-L-leucinal] | 2 nM |  |  |  |  | modestly elevated | 
COC(=O)CCCCCCCC(=O)N[C@@H](CCCN=C(N)NS(=O)(=O)c1c(C)cc(OC)c(C)c1C)C(=O)N[C@H](C=O)CC(C)C [Compound 34, Monomethylazelayl-N^g-(4-methoxy,2,3,6-trimethylbenzene-1-sulfonyl)-L-arginyl-L-leucinal] | 80 nM | 6.6 mg/muscle | +5% | 12% | 6.6 mg/muscle | modestly elevated | 6.3 mg/muscle
COC(CNC(=O)c1ccccc1OCC(=O)O)[CH2][Hg][OH] (stereo not drawn) [Mersalyl, reference compound] |  | 6.6 mg/muscle | +3% | 14% | 6.6 mg/muscle |  | 
